# Measured values as given in US12702307B2, “Non-invasive stress imaging methods of diagnosing peripheral arterial disease via dynamic pet” (Jubilant DraxImage inc., priority 2021, dated 2026).
# Assays:
# [1] = system: occluded tissue / low limb; assay: Dynamic Rb-82 PET, tracer flux K1 in lower extremity, human study; format: in vivo; conditions: for average K1 value: diabetic subject, 3D region of interest on the low limb, parametric imaging
# Description: CT scan was performed on the subject for standard attenuation correction, multi-energy low dose contrast CT imaging was performed to define lower extremity vasculature and attenuation correction was performed using virtual non-contrast images; 518±37 MBq Rb-82 is administered to the subject using automated generation and infusion system agent; single bed PET acquisition of the heart for about 2-7 minutes is performed; single bed centered PET acquisition at abdominal aorta of the subject for about 1-3 minutes is performed; continuous bed motion PET scan of the subject between abdominal aorta and legs is performed; input function was calculated from abdominal artery; Tracer flux (K1) into the tissue or region of interest is calculated as volume per unit time per unit volume of tissue. […] FIG. 5 represents the image acquisition protocol during human study. FIG. 7 represents the muscle volumes in human studies.
# [2] = system: occluded tissue (lower extremity); assay: Dynamic Rb-82 PET, tracer flux K1 in lower extremity, animal study; format: in vivo, porcine pigs; conditions: occluded tissue in comparison to non-occluded tissue; 518±37 MBq Rb-82
# Description: CT scan was performed on the subject for standard attenuation correction, and multi-energy low dose contrast CT imaging was performed to define the lower extremity vasculature and attenuation correction was performed using virtual non-contrast images; 518±37 MBq Rb-82 was administered to the subject using automated generation and infusion system; single bed PET acquisition of the heart for about 1-10 minutes, was performed; single bed PET acquisition of the leg for about 1-10 minutes was performed; single bed centered PET acquisition at abdominal aorta of the subject for about 1-3 minutes was performed; continuous bed motion PET scan of the subject between abdominal aorta and legs was performed; tracer flux (K1) into the tissue or region of interest is calculated as volume per unit time per unit volume of tissue. […] It was validated by injecting microspheres over 30 seconds during the PET imaging at either rest or stress conditions for each animal and blood flow was measured in both gastrocnemius and soleus muscles. FIG. 4 represents the sample animal K1 parametric image with AA as the input function. FIG. 6 represents the muscle volumes in animal studies.
# [3] = system: calf muscles, hindlimb ischemia (HLI); assay: Rb-82 PET/CT of calf muscles in rabbit hindlimb ischemia at rest and cuff-induced hyperemia; format: in vivo, rabbits; conditions: for SMP SUV: cuff-induced hyperemia (CIH); for Mean Rb-82 SUV: rest, 1.5 mCi
# Description: Methods: Hindlimb ischemia (HLI) was created in rabbits (n=8) by right femoral ligations and Rb-82 PET/CT imaging performed on digital PET scanner (Vision600, Siemens) at either 2 or 4 weeks post-ligation. Rabbits were injected with Rb-82 (1.5 mCi) with constant activity infusion over 30 seconds at rest and 30 seconds following hyperemia induced by 3 minutes cuff occlusion of thighs bilaterally. PET images were acquired with shuttling scanner from heart to feet using 8 passes over 7 minutes. Summed images were created excluding the first 90 seconds post injection. Calf muscles were segmented based on CT images. Mean Rb-82 standardized uptake values (SUVs) were calculated for calf muscles—gastrocnemius (GC), plantaris (PLA), soleus (SOL), tibialis anterior (TA), extensor digitorum longus (EDL), peroneus (PER)—for both ischemic (I) and non-ischemic (NI) limbs. CT angiography was performed, and tissues analyzed for fiber type and capillary density.
# calf muscles = assay: Rb PET/CT calf muscle perfusion at rest and reactive hyperemia in controls and PAD patients; format: in vivo, human
# Description: Methods: Rb PET/CT imaging (Vision600, Siemens) was performed in healthy controls (n=6) and PAD patients (n=6). Rb (20-30 mCi) was delivered using a constant activity infusion over […], with PET images acquired by shuttling scanner from either heart (Protocol 1) or abdomen (Protocol 2) to feet using 8-11 passes over 7 minutes. Abdominal protocol was repeated 30 seconds after RH induced by 5 minutes bilateral thigh cuff occlusion. Mean Rb standardized uptake values (SUV), excluding the input function, were determined for calf muscles segmented in both legs using hybrid CT images including: gastrocnemius (GC), soleus (SOL), tibialis anterior (TA), extensor digitorum longus (EDL), and peroneus (PER) (FIG. 10A).
compound,measurement,setting,value
[15OH2] [^15O-water],average K1 value,[1],0.039
Rb-82 chloride,Average K1 (tracer flux),[2],less than 0.05 ml/min/cm^3
same,SMP SUV,[3]; ischemic (I) limb,1.02±0.32
same,SMP SUV,[3]; non-ischemic (NI) limb,1.14±0.34
same,Mean Rb-82 SUV,[3]; ischemic (I) limb across calf muscles,0.55±0.18
same,Mean Rb-82 SUV,[3]; non-ischemic (NI) limb across calf muscles,0.51±0.16
same,average K1 value,[1],0.032
same,Average K1 (tracer flux),"[1]; occluded tissue in comparison to non-occluded tissue, 518±37 MBq Rb-82",less than 0.05 ml/min/cm^3
same,Mean Rb SUV,"calf muscles; reactive hyperemia (RH), PAD patients, gastrocnemius (GC)",0.96±0.58
same,Mean Rb SUV,"calf muscles; reactive hyperemia (RH), PAD patients, soleus (SOL)",1.08±0.76
same,Mean Rb SUV,"calf muscles; reactive hyperemia (RH), controls, gastrocnemius (GC)",0.38±0.18
same,Mean Rb SUV,"calf muscles; reactive hyperemia (RH), controls, soleus (SOL)",0.34±0.14
same,Mean Rb SUV,"calf muscles; rest, PAD subjects, gastrocnemius (GC)",0.50±0.11
same,Mean Rb SUV,"calf muscles; rest, PAD subjects, soleus (SOL)",0.66±0.20
same,Mean Rb SUV,"calf muscles; rest, controls, gastrocnemius (GC)",0.44±0.11
same,Mean Rb SUV,"calf muscles; rest, controls, soleus (SOL)",0.52±0.12
